Consider 10 compounds from US9120805B2, “Substituted pyrrolo[1,2-A]pyrazin-1-ones and pyrazolo[1,5-A]pyrazin-4-ones as inhibitors of tankyrase and poly(ADP-ribose)polymerase activity” (Merck Patent GmbH, priority 2012, dated 2015).

Broadly, the IC50 is the concentration needed to halve the response being measured. A lower IC50 goes with higher potency.

The target of test [1] is T1, GST-tagged Tankyrase-1 (1023-1327 aa) (Homo sapiens, UniProt O95271).
T1 construct: GST-tagged Tankyrase-1 (1023-1327 aa)
T1 sequence (O95271 1023-1327): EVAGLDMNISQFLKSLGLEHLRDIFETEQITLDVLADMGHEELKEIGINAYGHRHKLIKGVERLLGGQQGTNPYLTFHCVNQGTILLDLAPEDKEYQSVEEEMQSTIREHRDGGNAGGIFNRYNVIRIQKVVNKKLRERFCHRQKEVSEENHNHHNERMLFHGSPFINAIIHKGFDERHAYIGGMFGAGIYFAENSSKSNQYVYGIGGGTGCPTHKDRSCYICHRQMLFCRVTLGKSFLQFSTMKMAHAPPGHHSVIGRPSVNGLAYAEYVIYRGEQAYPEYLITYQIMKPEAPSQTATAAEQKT
In words: Tankyrase 1 autoparsylation assay (HTRF enzyme assay). The test is classed as biochemical. Put shortly:
(§1)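 ~250 nM GST-tagged enzyme with 5 μM biotin-NAD in HEPES/Mg/DTT buffer pH 7.7, 10 compound concentrations, 90 min at 30 °C; EDTA stop. Eu-anti-GST/streptavidin-Xlent HTRF read (665/615 ratio) after 1 h RT. IC50 relative to inhibitor-free reaction and 5 μM XAV-939 as zero.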

The test system of a further test is tankyrase 1/2. Briefly: Cellular inhibition of Tankyrase: increase of Axin2 level in DLD1 cells (Luminex). The format is cell-based. As to conditions: 24 hours, read-out: EC50 tankyrase 1/2 (cell assay). The protocol: Measurement of Cellular Inhibition of Tankyrase
Since Tankyrases have been described to modulate cellular level of Axin2 (Huang et al., 2009; Nature) the increase of Axin2 level is used as read-out for determination of cellular inhibition of Tankyrases in a Luminex based assay.
Cells of the colon carcinoma cell line DLD1 are plated in 96 well plates with 1.5×10^4 cells per well. Next day, cells are treated with a serial dilution of test compound in seven steps as triplicates with a final DMSO concentration of 0.3%. After 24 hours, cells are lysed in lysis buffer (20 mM Tris/HCl pH 8.0, 150 mM NaCl, 1% NP40, 10% Glycerol) and lysates are cleared by centrifugation through a 96 well filter plate (0.65 μm). Axin2 protein is isolated from cell lysates by incubation with a monoclonal anti-Axin2 antibody (R&D Systems #MAB6078) that is bound to fluorescent carboxybeads. Then, bound Axin2 is specifically detected with a polyclonal anti-Axin2 antibody (Cell Signaling #2151) and an appropriate PE-fluorescent secondary antibody. The amount of isolated Axin2 protein is determined in a Luminex^200 machine (Luminex Corporation) according to the manufacturer's instruction by counting 100 events per well. Inhibition of Tankyrase by test compounds results in higher levels of Axin2 which directly correlates with an increase of detectable fluorescence. As controls cells are treated with solvent alone (neutral control) and with a Tankyrase reference inhibitor IWR-2 (3E-06 M) which refers as control for maximum increase of Axin2. For analysis, the obtained data are normalized against the untreated solvent control and fitted for determination of the EC50 values using the Assay Explorer software (Accelrys).

In test [2] the target is T2, GST-tagged Tankyrase-2 (873-1166 aa) (Homo sapiens, UniProt Q9H2K2).
T2 construct: GST-tagged Tankyrase-2 (873-1166 aa)
T2 sequence (Q9H2K2 873-1166): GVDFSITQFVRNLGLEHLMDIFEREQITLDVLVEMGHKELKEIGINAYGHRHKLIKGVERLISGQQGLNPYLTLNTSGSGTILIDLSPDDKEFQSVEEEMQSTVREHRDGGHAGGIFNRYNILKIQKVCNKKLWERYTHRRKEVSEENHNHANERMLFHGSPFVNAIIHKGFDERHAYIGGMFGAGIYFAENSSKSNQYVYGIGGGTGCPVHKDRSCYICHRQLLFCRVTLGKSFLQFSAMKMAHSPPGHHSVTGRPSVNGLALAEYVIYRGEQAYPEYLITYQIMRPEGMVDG
Briefly: Tankyrase 2 autoparsylation assay (HTRF enzyme assay). The format is biochemical. Put shortly: as §1

Test [3] concerns the target T3, GST-tagged Tnks-2 (873-1166 aa) (Homo sapiens, UniProt Q9H2K2).
T3 construct: GST-tagged Tnks-2 (873-1166 aa, prepared in-house); made in house
Briefly: TNKS2 activity ELISA (autoparsylation assay). The format is biochemical. The method, then: (§2) Description of the TNKS1 and TNKS2 ELISA Assay
(§3) Biochemical Activity Testing of TNKS 1 and 2: Activity ELISA (Autoparsylation Assay)
(§4) For analysis of autoparsylation activity of TNKS 1 and 2 an activity ELISA is performed: In the first step GST tagged TNKS is captured on a Glutathione coated plate. Then the activity assay with biotinylated NAD is performed in the absence/presence of the compounds. During the enzymatic reaction GST tagged TNKS transfers biotinylated ADP-ribose to itself from biotinylated NAD as co-substrate. For the detection streptavidin-HRP conjugate is added that binds to the biotinylated TNKS and is thereby captured to the plates. The amount of biotinylated resp. autoparsylated TNKS is detected with a luminescence substrate for HRP. The level of the luminescence signal correlates directly with the amount of autoparsylated TNKS and therefore with activity of TNKS.
(§5) The activity ELISA is performed in 384 well Glutathione coated microtiter plates (Express capture Glutathione coated plate, Biocat, Heidelberg, Germany). The plates are pre-equilibrated with PBS. Then the plates are incubated with 50 μl 20 ng/well GST-tagged Tnks-1 (1023-1327 aa, prepared in-house), respectively GST-tagged Tnks-2 (873-1166 aa, prepared in-house) in assay buffer (50 mM HEPES, 4 mM Mg-chloride, 0.05% Pluronic F-68, 2 mM DTT, pH 7.7) overnight at 4° C. The plates are washed 3 times with PBS-Tween-20. The wells are blocked by incubation at room temperature for 20 minutes with 50 μl blocking buffer (PBS, 0.05% Tween-20, 0.5% BSA). Afterwards the plates are washed 3 times with PBS-Tween-20. The enzymatic reaction is performed in 50 μl reaction solution (50 mM HEPES, 4 mM Mg-chloride, 0.05% Pluronic F-68, 1.4 mM DTT, 0.5% DMSO, pH 7.7) with 10 μM bio-NAD (Biolog, Life science Inst., Bremen, Germany) as co-substrate in the absence or presence of the test compound (10 dilution concentrations) for 1 hour at 30° C. The reaction is stopped by 3 times washing with PBS-Tween-20. For the detection 50 μl of 20 ng/μl Streptavidin, HRP conjugate (MoBiTec, Göttingen, Germany) in PBS/0.05% Tween-20/0.01% BSA are added and the plates are incubated for 30 minutes at room temperature. After three times washing with PBS-Tween-20 50 μl of SuperSignal ELISA Femto Maximum sensitivity substrate solution (ThermoFisherScientific (Pierce), Bonn, Germany) are added. Following a 1 minute incubation at room temperature luminescence signals are measured with an Envision multimode reader (Perkin Elmer LAS Germany GmbH) at 700 nm. The full value used is the inhibitor-free reaction. The pharmacological zero value used is XAV-939 (Tocris) in a final concentration of 5 μM. The inhibitory values (1050) are determined using either the program Symyx Assay Explorer® or Condosseo® from GeneData.

Test [4] deals with T4, GST-tagged Tnks-1 (1023-1327 aa) (Homo sapiens, UniProt O95271).
T4 construct: GST-tagged Tnks-1 (1023-1327 aa, prepared in-house); made in house
T4 sequence (O95271 1023-1327): as the sequence (O95271 1023-1327) above
In words: TNKS1 activity ELISA (autoparsylation assay). The test is classed as biochemical. The protocol: as §2, §3, §4, §5
In general terms: ELISA stands for enzyme-linked immunosorbent assay.

Another test relates to β-catenin. As to conditions: literature (Huang et al., 2009); by increasing AXIN1 and AXIN2 levels; cited from earlier work.
The test system of a further test is DLD-1-cancer cells. As to conditions: literature (Huang et al., 2009); cited from earlier work.
The target of another test is T5, His-tagged Parp-1 (Homo sapiens, UniProt P09874).
T5 construct: purchased Enzo Life Sciences GmbH
T5 sequence (P09874 whole entry): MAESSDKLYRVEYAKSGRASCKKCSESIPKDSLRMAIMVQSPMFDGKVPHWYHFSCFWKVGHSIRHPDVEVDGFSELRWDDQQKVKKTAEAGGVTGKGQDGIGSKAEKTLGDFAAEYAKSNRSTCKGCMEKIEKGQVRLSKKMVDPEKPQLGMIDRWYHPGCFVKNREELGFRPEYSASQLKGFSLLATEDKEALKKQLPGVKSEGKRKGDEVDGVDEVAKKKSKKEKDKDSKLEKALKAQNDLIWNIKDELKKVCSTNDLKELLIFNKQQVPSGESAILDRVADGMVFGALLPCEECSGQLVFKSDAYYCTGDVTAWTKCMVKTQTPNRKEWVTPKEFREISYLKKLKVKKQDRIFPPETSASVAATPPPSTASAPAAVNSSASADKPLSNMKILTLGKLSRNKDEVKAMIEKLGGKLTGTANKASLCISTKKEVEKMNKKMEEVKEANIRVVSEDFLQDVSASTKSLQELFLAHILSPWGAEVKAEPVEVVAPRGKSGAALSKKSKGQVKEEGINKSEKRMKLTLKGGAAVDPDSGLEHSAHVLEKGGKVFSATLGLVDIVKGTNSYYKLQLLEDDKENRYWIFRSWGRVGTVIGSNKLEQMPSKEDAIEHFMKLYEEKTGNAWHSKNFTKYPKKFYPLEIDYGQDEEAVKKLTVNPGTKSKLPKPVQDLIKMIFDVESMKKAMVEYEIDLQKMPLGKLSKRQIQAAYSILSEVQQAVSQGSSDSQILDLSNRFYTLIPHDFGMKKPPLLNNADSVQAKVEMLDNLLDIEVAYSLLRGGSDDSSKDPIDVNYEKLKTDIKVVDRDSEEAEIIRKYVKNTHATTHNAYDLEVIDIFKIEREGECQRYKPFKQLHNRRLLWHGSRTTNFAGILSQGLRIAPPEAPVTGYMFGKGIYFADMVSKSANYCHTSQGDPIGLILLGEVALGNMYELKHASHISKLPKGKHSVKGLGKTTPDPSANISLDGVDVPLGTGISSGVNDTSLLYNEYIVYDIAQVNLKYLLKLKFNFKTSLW
In words: PARP-1 autoparsylation assay (HTRF). The test is classed as biochemical. As to conditions: PARP-1 autoparsylation HTRF assay. From the text: Description of the PARP1 Assay
Biochemical Activity Testing of PARP-1: Autoparsylation Assay
The autoparsylation assay is run in two steps: the enzymatic reaction in which
His-tagged Parp-1 transfers biotinylated ADP-ribose/ADP-ribose to itself from biotinylated NAD/NAD as co-substrate and the detection reaction where a time resolved FRET between cryptate labelled anti-His antibody bound to the His tag of the enzyme and Xlent® labelled-streptavidin bound the biotin-parsylation residue is analysed. The autoparsylation activity is detectable directly via the increase in HTRF signal.
The autoparsylation assay is performed as 384-well HTRF® (Cisbio, Codolet, France) assay format in Greiner low volume nb 384-well microtiter plates. 35 nM His-tagged Parp-1 (human, recombinant, Enzo Life Sciences GmbH, Lörrach, Germany) and a mixture of 125 nM bio-NAD (Biolog, Life science Inst., Bremen, Germany) and 800 nM NAD as co-substrate are incubated in a total volume of 6 μl (100 mM Tris/HCl, 4 mM Mg-chloride, 0.01% IGEPAL® CA630, 1 mM DTT, 0.5% DMSO, pH 8, 13 ng/μl activated DNA (BPS Bioscience, San Diego, US)) in the absence or presence of the test compound (10 dilution concentrations) for 150 min at 23° C. The reaction is stopped by the addition of 4 μl of the Stop/detection solution (70 nM SA-Xlent® (Cisbio, Codolet, France), 2.5 nM Anti-His-K® (Eu-labelled anti-His, Cisbio, Codolet, France) in 50 mM HEPES, 400 mM KF, 0.1% BSA, 20 mM EDTA, pH 7.0). After 1 h incubation at room temperature the HTRF is measured with an Envision multimode reader (Perkin Elmer LAS Germany GmbH) at excitation wavelength 340 nm (laser mode) and emission wavelengths 615 nm and 665 nm. The ratio of the emission signals is determined. The full value used is the inhibitor-free reaction. The pharmacological zero value used is Olaparib (LClabs, Woburn, US) in a final concentration of 1 μM. The inhibitory values (IC50) are determined using either the program Symyx Assay Explorer® or Condosseo® from GeneData.
Background: Time-resolved FRET reads energy transfer from a long-lived donor to a nearby acceptor.

T3 sequence (Q9H2K2 873-1166): as the sequence (Q9H2K2 873-1166) above

As for `O=c1[nH]c(-c2ccc(C3(O)COC3)cc2)cn2cccc12` [Compound A110], the IC50 is below 300 nM in test [1], 300 to 3000 nM in test [2], below 300 nM in test [3] and below 300 nM in test [4]. In addition, the EC50 in the test with tankyrase 1/2 lay within 300 to 3000 nM.
For the compound `CC(C)(C)c1ccc(-c2cn3nc(CO)cc3c(=O)[nH]2)cc1` [Compound A18, 6-(4-tert-butyl-phenyl)-2-hydroxymethyl-5H-pyrazolo[1,5-a]pyrazin-4-one], the half-maximal inhibitory concentration (IC50) in test [1] was below 300 nM; in test [2], 300 to 3000 nM; in test [3], below 300 nM; in test [4], below 300 nM. Moreover, the EC50 in the test on tankyrase 1/2 fell in the range of 300 to 3000 nM.
In the case of `CC(C)(C)c1ccc(-c2cn3cc(C#N)cc3c(=O)[nH]2)cc1` [Compound A92, 3-(4-tert-butyl-phenyl)-1-oxo-1,2-dihydro-pyrrolo[1,2-a]pyrazine-7-carbonitrile], the IC50 in test [1] was below 300 nM; in test [2], 300 to 3000 nM; in test [3], below 300 nM; in test [4], below 300 nM. Besides, the EC50 in the test on tankyrase 1/2 lay within 3000 to 50000 nM.
Consider `CN1CCC(c2ccc(-c3cn4cc(F)cc4c(=O)[nH]3)cc2)CC1` [Compound A81, 7-fluoro-3-[4-(1-methyl-piperidin-4-yl)-phenyl]-2H-pyrrolo[1,2-a]pyrazin-1-one], for which the IC50 in test [1] was below 300 nM; in test [2], 300 to 3000 nM; in test [3], below 300 nM; in test [4], below 300 nM. Moreover, the EC50 with tankyrase 1/2 was 300 to 3000 nM.
As for `Oc1nc(-c2ccc(C(F)(F)F)cc2)nc2c1CSCC2` [XAV939], the “Wnt-stimulated accumulation of β-catenin” value in the test with β-catenin was “blocked Wnt-stimulated accumulation of β-catenin”. Besides, the “growth of DLD-1-cancer cells” value in the test on DLD-1-cancer cells is recorded as “inhibits growth”.
Take `CC(C)(C)c1ccc(-c2cn3nccc3c(=O)[nH]2)cc1` [Compound A15, 6-(4-tert-butyl-phenyl)-5H-pyrazolo[1,5-a]pyrazin-4-one]: the IC50 in test [1], in test [2], in test [3] and in test [4] was below 300 nM throughout. In addition, the EC50 in the test with tankyrase 1/2 is below 300 nM.
For `CC(C)(O)c1ccc(-c2cn3c(F)ccc3c(=O)[nH]2)cc1` [Compound A84, 6-fluoro-3-[4-(1-hydroxy-1-methyl-ethyl)-phenyl]-2H-pyrrolo[1,2-a]pyrazin-1-one], the 50% inhibitory concentration (IC50) was below 300 nM in test [3], below 300 nM in test [4] and 300 to 3000 nM against His-tagged Parp-1.
For the compound `CC(C)(O)c1ccc(-c2cn3c(F)c(F)cc3c(=O)[nH]2)cc1` [Compound A83, 6,7-difluoro-3-[4-(1-hydroxy-1-methyl-ethyl)-phenyl]-2H-pyrrolo[1,2-a]pyrazin-1-one], the IC50 (in test [3]; in test [4]; on His-tagged Parp-1) was below 300 nM in each case.
As for `Cc1cc2c(=O)[nH]c(-c3cnn(C(C)(C)C)c3)cn2c1` [Compound A57, 3-(1-tert-butyl-1H-pyrazol-4-yl)-7-methyl-2H-pyrrolo[1,2-a]pyrazin-1-one], the IC50 in test [1] was 300 to 3000 nM; in test [2], 300 to 3000 nM; in test [3] it was 300 to 3000 nM; in test [4], below 300 nM; on His-tagged Parp-1, 300 to 3000 nM.
On to `O=c1[nH]c(-c2ccc(C3(O)CCCC3)cc2)cn2cc(F)cc12` [Compound A85, 7-fluoro-3-[4-(1-hydroxy-cyclopentyl)-phenyl]-2H-pyrrolo[1,2-a]pyrazin-1-one], for which the results for the IC50 (in test [3]; in test [4]; against His-tagged Parp-1) were below 300 nM, below 300 nM and 300 to 3000 nM, respectively.
